Measured values reported in US5177078A, “Piperazine derivatives” (John Wyeth & Brother Limited, priority 1990, dated 1993).

Assays:
[1] = molecular target: T1, 5-HT1A receptor (Rattus norvegicus, UniProt P19327); experiment: 5-HT1A receptor binding activity in rat hippocampal membrane homogenate; conditions: method of Alexander and Wood
T1 construct: syndrome in the rat; from tissue; host or cells: living rat (endogenous receptor of the central nervous system)
T1 sequence (P19327 1-422): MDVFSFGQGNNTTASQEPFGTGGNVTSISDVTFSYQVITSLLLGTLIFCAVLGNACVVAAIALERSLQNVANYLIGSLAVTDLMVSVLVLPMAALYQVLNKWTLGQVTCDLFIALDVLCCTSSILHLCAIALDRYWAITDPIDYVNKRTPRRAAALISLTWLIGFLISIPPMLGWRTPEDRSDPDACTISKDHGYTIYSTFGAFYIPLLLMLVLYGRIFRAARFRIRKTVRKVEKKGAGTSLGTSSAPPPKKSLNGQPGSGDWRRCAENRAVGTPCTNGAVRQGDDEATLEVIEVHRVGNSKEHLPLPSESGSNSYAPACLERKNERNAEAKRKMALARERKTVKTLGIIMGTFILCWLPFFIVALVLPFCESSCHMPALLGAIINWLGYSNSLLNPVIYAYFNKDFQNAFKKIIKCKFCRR
Experimental: The compounds of the invention are tested for 5-HT1A receptor binding activity in rat hippocampal membrane homogenate by the method of B S Alexander and M D Wood, J Pharm Pharmacol, 1988, 40, 888-891.

[2] = molecular target: T1, 5-HT1A receptor; experiment: antagonism of 8-OH DPAT syndrome in the rat (5-HT1A receptor antagonism activity); assay type: in vivo
Experimental: The compounds are tested for 5-HT1A receptor antagonism activity in a test involving the antagonism of 8-hydroxy-2-(di-n-propylamino)-tetralin (8-OH DPAT) syndrome in the rat. (R,S)-1-(2-Methoxyphenyl)-4-[2-(IH-imidazol-1-yl) -2-(phenyl)ethylpiperazine had MED of 1 mg/kg subcut and 10 mg/kg p.o when tested in this procedure.

COc1ccccc1N1CCN(CC(c2ccccc2)n2ccnc2)CC1 (stereo not drawn) [Example 1, 1-(2-Methoxyphenyl)-4-[2-(1H-imidazol-1-yl)-2-(phenyl)ethyl]piperazine]
IC50 [1]: 15.8 nM
MED ([2]; p.o): 10 mg/kg
MED ([2]; subcut): 1 mg/kg
